Several values for one entry are separate records, joined by “and”; a condition that tells them apart may be missing. Equal values may be shown once. Read-outs that look alike come from different tables or passages of the source.
What was measured:
FAP = target: T1, FAP (Homo sapiens, UniProt Q12884); test: FAP IC50 using Z-Gly-Pro-7-amino-4-methylcoumarin (AMC); assay type: biochemical; conditions: for Selectivity index (FAP/PREP): from IC50 FAP and IC50 PREP; for IC50: substrate Z-Gly-Pro-AMC
T1 sequence (Q12884 1-760): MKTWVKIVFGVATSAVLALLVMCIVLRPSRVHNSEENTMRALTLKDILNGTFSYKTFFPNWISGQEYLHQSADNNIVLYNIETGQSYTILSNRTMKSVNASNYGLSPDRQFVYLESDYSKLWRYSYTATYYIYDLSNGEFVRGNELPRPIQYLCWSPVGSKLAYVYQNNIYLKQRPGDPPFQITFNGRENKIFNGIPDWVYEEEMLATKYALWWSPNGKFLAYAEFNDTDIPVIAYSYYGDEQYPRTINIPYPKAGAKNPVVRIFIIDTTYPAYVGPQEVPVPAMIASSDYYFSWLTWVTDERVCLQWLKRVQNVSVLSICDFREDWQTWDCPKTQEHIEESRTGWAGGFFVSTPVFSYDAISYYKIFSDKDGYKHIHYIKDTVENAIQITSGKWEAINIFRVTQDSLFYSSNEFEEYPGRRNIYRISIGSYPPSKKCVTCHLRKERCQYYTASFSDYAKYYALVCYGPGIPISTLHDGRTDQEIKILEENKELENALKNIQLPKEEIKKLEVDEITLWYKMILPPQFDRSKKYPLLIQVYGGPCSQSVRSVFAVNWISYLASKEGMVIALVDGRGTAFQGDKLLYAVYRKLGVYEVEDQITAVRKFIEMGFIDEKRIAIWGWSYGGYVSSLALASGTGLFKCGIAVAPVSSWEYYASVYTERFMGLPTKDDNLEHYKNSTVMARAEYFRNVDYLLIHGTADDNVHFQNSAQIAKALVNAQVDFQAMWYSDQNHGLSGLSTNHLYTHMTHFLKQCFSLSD
Procedure: (§1) The FAP IC50 values were measured using Z-Gly-Pro-7-amino-4-methylcoumarin (AMC). The PREP IC50 values were determined using N-succinyl-Gly-Pro-AMC.

PREP = target: T2, PREP (Homo sapiens, UniProt P48147); test: PREP IC50 using N-succinyl-Gly-Pro-AMC; assay type: biochemical; conditions: substrate N-succinyl-Gly-Pro-AMC
T2 sequence (P48147 1-710): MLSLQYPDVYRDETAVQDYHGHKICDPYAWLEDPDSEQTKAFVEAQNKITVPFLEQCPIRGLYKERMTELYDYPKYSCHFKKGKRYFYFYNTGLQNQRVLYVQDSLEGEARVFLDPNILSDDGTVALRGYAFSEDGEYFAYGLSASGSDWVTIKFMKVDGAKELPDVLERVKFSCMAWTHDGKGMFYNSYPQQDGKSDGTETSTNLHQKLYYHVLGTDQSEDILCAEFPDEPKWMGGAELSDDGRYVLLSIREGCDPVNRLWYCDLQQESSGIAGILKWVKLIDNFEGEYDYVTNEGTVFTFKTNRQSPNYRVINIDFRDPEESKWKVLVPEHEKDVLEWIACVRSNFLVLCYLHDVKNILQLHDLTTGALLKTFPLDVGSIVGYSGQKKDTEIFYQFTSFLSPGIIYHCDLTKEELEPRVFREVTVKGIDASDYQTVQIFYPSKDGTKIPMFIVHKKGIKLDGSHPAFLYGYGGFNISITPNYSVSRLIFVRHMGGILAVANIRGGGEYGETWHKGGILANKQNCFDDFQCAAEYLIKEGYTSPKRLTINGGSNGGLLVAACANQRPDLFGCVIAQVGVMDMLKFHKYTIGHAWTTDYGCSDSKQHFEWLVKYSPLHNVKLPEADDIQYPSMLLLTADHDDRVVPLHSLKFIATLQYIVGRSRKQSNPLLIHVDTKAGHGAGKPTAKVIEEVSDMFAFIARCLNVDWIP
Procedure: as §1

LNCap cells = test: In vitro IC50 of unlabeled compounds with LNCap cells; assay type: cell-based
From the text: Further compounds according to the invention are those of the DATA.QS.PSMA type, the structure of which corresponds to the other compounds listed, with the DATA chelator enabling simpler and milder labeling. In the synthesis shown in FIG. 37, a yield of about 70% is achieved. In the case of radioactive labeling with ^68Ga, a yield of more than 95% is achieved (FIG. 38).

LNCaP tumor [1] = test: PET preclinical comparative tests of PSMA radiotracers (SUV); conditions: 68Ga-labeled tracer; for SUV Nieren: kidneys (Nieren); for SUV Leber: liver (Leber)
LNCaP tumor [2] = conditions: NMRI nu/nu nude, mouse, in vivo
tumor tissue = test: In vivo and ex vivo investigation of TRAP.QS.PSMA radiotracer; conditions: ex vivo, compared to [68Ga]Ga-PSMA-11
Procedure: FIG. 31a-b, 32-36 show the synthesis and measurement results for radiolabeling, stability and in vivo investigations of the radiotracer [^68Ga]Ga-TRAP.QS.PSMA. […] The in vivo studies were carried out with ^68Ga and ^64Cu. From the images it can be seen that, compared to Examples 8 and 10, the accumulation in the kidneys is […] for both radiotracers.

LNCaP tumor [3] = test: Biological distribution by extraction of organs (ex vivo), PSMA tracers; assay type: in vivo, NMRInu/nu nude mice; conditions: for tumor activity (biological distribution): compared with 68Ga-PSMA-11 and 68Ga-PSMA-617
From the text: In addition, PET was used to carry out preclinical ex vivo tests with the radiotracers of type [^68Ga]Ga-DOTA.QS.PSMA, [^68Ga]Ga-PSMA-11 and [^68Ga] Ga-PSMA-617 on NMRInu/nu nude mice with an LNCap tumor. […] The results obtained underline those obtained in the in vivo tests.

[4] = PET scans of bone tracers in young healthy rats; assay type: in vivo, Wistar rats
Procedure: The tracer NOTA.QS.PAM according to the invention and the clinically established reference tracer DOTA^Zol were labeled with ^68Ga, injected into young healthy Wistar rats, followed by recording of PET scans at intervals of 5 min, 60 min and 120 min after injection.
Both tracers are characterized by renal excretion and low retention in the remaining tissue.

tumor [5] = test: In vivo PET comparison of DATA.QS.PSMA with PSMA-11 (MIP, time/activity curves)
From the text: Furthermore, compounds of the type DATA.QS.PSMA were compared in vivo with PSMA-11 in the same animal model.

tumor [6] = test: Ex vivo activities of 68Ga-DATA.QS.PSMA and 68Ga-PSMA-11; assay type: in vivo; conditions: ± SD
From the text: The results of ex vivo investigations (FIGS. 41-43) are in agreement with the in vivo observations.

## CN(CC(=O)O)C1(CCCCC(=O)NCCNc2c(NCCCCOc3ccc4nccc(C(=O)NCC(=O)N5CC(F)(F)C[C@H]5C#N)c4c3)c(=O)c2=O)CN(CC(=O)O)CCN(CC(=O)O)C1.[Ga+3] [DATA5m.QS.FAPi - natGa]
FAP
  Selectivity index (FAP/PREP): 6714
  IC50: 0.7 ± 0.1 nM
PREP
  IC50: 4700 ± 300 nM

## CN(CC(=O)O)C1(CCCCC(=O)NCCNc2c(NCCCCC(NC(=O)NC(CCC(=O)O)C(=O)O)C(=O)O)c(=O)c2=O)CN(CC(=O)O)CCN(CC(=O)O)C1 (stereo not drawn) [DATA.QS.PSMA]
LNCap cells
  IC50: 51.5 nM and 51.1 nM

## CN(CC(=O)O)C1(CCCCC(=O)NCCNc2c(NCCCCOc3ccc4nccc(C(=O)NCC(=O)N5CC(F)(F)C[C@H]5C#N)c4c3)c(=O)c2=O)CN(CC(=O)O)CCN(CC(=O)O)C1 [DATA^5m.QS.FAPi - uncomplexed]
FAP
  Selectivity index (FAP/PREP): 2113
  IC50: 0.8 ± 0.2 nM
PREP
  IC50: 1690 ± 90 nM

## N#C[C@@H]1CC(F)(F)CN1C(=O)CNC(=O)c1ccnc2ccc(OCCCCNc3c(NCCNC(=O)CN4CCN(CC(=O)O)CCN(CC(=O)O)CCN(CC(=O)O)CC4)c(=O)c3=O)cc12 [DOTA.QS.FAPi - uncomplexed]
FAP
  Selectivity index (FAP/PREP): 6000
  IC50: 0.9 ± 0.1 nM
PREP
  IC50: 5400 ± 300 nM

## O=C(O)CCC(NC(=O)NC(CCCCNc1c(NCCNC(=O)CCC(C(=O)O)N2CCN(CC(=O)O)CCN(CC(=O)O)CCN(CC(=O)O)CC2)c(=O)c1=O)C(=O)O)C(=O)O (stereo not drawn) [DOTA.QS.PSMA]
LNCaP tumor [1]
  SUV Nieren: 0.43
  SUV Leber: 0.27
  SUV Tumor: 0.73

## O=C(O)CCc1ccc(O)c(CN(CCN(CC(=O)O)Cc2cc(CCC(=O)NCCCCCC(=O)NCCCC[C@H](NC(=O)N[C@@H](CCC(=O)O)C(=O)O)C(=O)O)ccc2O)CC(=O)O)c1 [PSMA-11, reference compound]
LNCaP tumor [1]
  SUV Nieren: 4.71
  SUV Leber: 0.25
  SUV Tumor: 1.16

## O=C(O)CC[C@H](NC(=O)N[C@@H](CCCCNC(=O)[C@H](Cc1ccc2ccccc2c1)NC(=O)[C@H]1CC[C@H](CNC(=O)CN2CCN(CC(=O)O)CCN(CC(=O)O)CCN(CC(=O)O)CC2)CC1)C(=O)O)C(=O)O [PSMA-617]
LNCap cells; Homo sapiens
  IC50: 15.1 nM
LNCaP tumor [2]
  SUV Leber: 0.29
  SUV Nieren: 0.27
  SUV Tumor: 0.73

## O=C(O)CCC(NC(=O)NC(CCCCNc1c(NCCCOCCOCCOCCCNC(=O)CCP(=O)(O)CN2CCN(CP(=O)(O)CCC(=O)NCCCOCCOCCOCCCNc3c(NCCCCC(NC(=O)NC(CCC(=O)O)C(=O)O)C(=O)O)c(=O)c3=O)CCN(CP(=O)(O)CCC(=O)NCCCOCCOCCOCCCNc3c(NCCCCC(NC(=O)NC(CCC(=O)O)C(=O)O)C(=O)O)c(=O)c3=O)CC2)c(=O)c1=O)C(=O)O)C(=O)O.[68Ga+3] (stereo not drawn) [[^68Ga]Ga-TRAP.QS.PSMA]
Tumor tissue
  accumulation in the kidneys: noticeably decreased
  accumulation in tumor tissue: elevated

## O=C(O)CCC(NC(=O)NC(CCCCNc1c(NCCNC(=O)CCC(C(=O)O)N2CCN(CC(=O)O)CCN(CC(=O)O)CCN(CC(=O)O)CC2)c(=O)c1=O)C(=O)O)C(=O)O.[68Ga+3] (stereo not drawn) [^68Ga-DOTA.QS.PSMA]
LNCaP tumor [3]; compared with 68Ga-PSMA-11
  off-target activity in the kidneys: significantly lower
LNCaP tumor [3]
  tumor activity (biological distribution): slightly lower or equal
LNCaP tumor [3]; listed as [^68Ga]Ga-DOTA.QS.PSMA
  tumor activity (biological distribution): slightly lower or the same
LNCaP tumor [1]
  SUV Tumor: 0.73

## O=C(O)CN1CCN(CC(=O)O)CCN(CC(=O)NCCc2cncn2CC(O)(P(=O)(O)O)P(=O)(O)O)CCN(CC(=O)O)CC1.[68Ga+3] [^68Ga-DOTA^Zol, reference compound]
[4]; 68Ga-labeled, organ distribution, femur
  SUV femur: 3.7±0.4

## O=C(O)CN1CCN(CC(=O)O)CCN(C(CCC(=O)NCCNc2c(NCCC(O)(P(=O)(O)O)P(=O)(O)O)c(=O)c2=O)C(=O)O)CC1.[68Ga+3] (stereo not drawn) [^68Ga-NOTA.QS.PAM]
[4]; rat, in vivo
  SUV femur: 4.5±0.2
  renal excretion: slightly reduced

## CN(CC(=O)O)C1(CCCCC(=O)NCCNc2c(NCCCCC(NC(=O)NC(CCC(=O)O)C(=O)O)C(=O)O)c(=O)c2=O)CN(CC(=O)O)CCN(CC(=O)O)C1.[68Ga+3] (stereo not drawn) [^68Ga.DATA.QS.PSMA]
Tumor [5]; MIP images
  accumulation in the tumor: high accumulation
Tumor [5]; first hour, compared with [68Ga]-PSMA-11, time/activity curves
  excretion via the kidneys: significantly faster
Tumor [6]
  Ex vivo activity LN: 0.35 ± 0.20 % ID/g
  Ex vivo activity blood: 0.50 ± 0.19 % ID/g
  Ex vivo activity bone: 0.15 ± 0.03 % ID/g
  Ex vivo activity heart: 0.17 ± 0.06 % ID/g
  Ex vivo activity kidney left: 6.59 ± 2.45 % ID/g
  Ex vivo activity kidney right: 6.23 ± 2.39 % ID/g
  Ex vivo activity liver: 0.21 ± 0.04 % ID/g
  Ex vivo activity lung: 0.59 ± 0.27 % ID/g
  Ex vivo activity muscle: 0.09 ± 0.05 % ID/g
  Ex vivo activity salivary glands: 0.19 ± 0.07 % ID/g
  Ex vivo activity small intestine: 0.31 ± 0.12 % ID/g
  Ex vivo activity spleen: 0.54 ± 0.22 % ID/g
  Ex vivo activity tumor: 4.65 ± 0.58 % ID/g

## O=C([O-])CN(CCN(CC(=O)[O-])Cc1cc(CCC(=O)NCCCCCC(=O)NCCCC[C@H](NC(=O)N[C@@H](CCC(=O)O)C(=O)O)C(=O)O)ccc1[O-])Cc1cc(CCC(=O)O)ccc1[O-].[68Ga+3].[OH3+] [^68Ga.PSMA 11, reference compound]
Tumor [6]
  Ex vivo activity LN: 0.66 ± 0.10 % ID/g
  Ex vivo activity blood: 0.27 ± 0.03 % ID/g
  Ex vivo activity bone: 0.15 ± 0.04 % ID/g
  Ex vivo activity heart: 0.17 ± 0.03 % ID/g
  Ex vivo activity kidney left: 36.66 ± 5.05 % ID/g
  Ex vivo activity kidney right: 36.72 ± 4.33 % ID/g
  Ex vivo activity liver: 0.23 ± 0.04 % ID/g
  Ex vivo activity lung: 0.74 ± 0.04 % ID/g
  Ex vivo activity muscle: 0.11 ± 0.03 % ID/g
  Ex vivo activity salivary glands: 0.54 ± 0.11 % ID/g
  Ex vivo activity small intestine: 0.50 ± 0.14 % ID/g
  Ex vivo activity spleen: 3.12 ± 0.39 % ID/g
  Ex vivo activity tumor: 5.51 ± 0.38 % ID/g
